In general, chromatographic logP refers to a lipophilicity value derived from retention on a column. High values mean higher lipophilicity, low ones lower lipophilicity.

The results in this text go back to patent publication US10231453B2, “5-substituted imidazole derivatives” (BAYER CROPSCIENCE AKTIENGESELLSCHAFT, priority 2015, dated 2019).

Series [1] concerns Blumeria graminis fsp. hordei. In words: In vivo preventive Blumeria test (barley), Example K. The following applies: 168 h, 500 ppm of active ingredient, preventive spray, evaluated 7 days after inoculation, read-out: efficacy. An excerpt: After the spray coating has been dried, the plants are dusted with spores of Blumeria graminis fsp. hordei.
In series [2] the test system is Pyrenophora teres. Put plainly: In vivo preventive test on Pyrenophora teres (net blotch on barley), Examples D, Q2 and R4. The following applies: Pyrenophora teres, 336 h, 500 ppm of active ingredient, preventive spray, evaluated 14 days after inoculation, read-out: efficacy.
Series [3] has as its system Venturia inaequalis. Put plainly: In vivo preventive Venturia test (apples), Example J. The note with it: 240 h, read-out: efficacy.
Protocol: After the spray coating has dried on, the plants are inoculated with an aqueous conidia suspension of the causal agent of apple scab (Venturia inaequalis) and then remain for 1 day in an incubation cabinet at approximately 20° C. and a relative atmospheric humidity of 100%.
The plants are then placed in a greenhouse at approximately 21° C. and a relative atmospheric humidity of approximately 90%.
The test is evaluated 10 days after the inoculation.
Series [4] concerns Septoria tritici. Put plainly: In vivo preventive test on Septoria tritici (leaf spot on wheat), Examples E, Q3 and R5. The following applies: Zymoseptoria tritici, 576 h, 500 ppm of active ingredient; wheat, preventive spray, evaluated 24 days after inoculation; read-out: efficacy.
Series [5] relates to Uromyces appendiculatus. Put plainly: In vivo preventive test on Uromyces appendiculatus (bean rust), Examples G and R7. The note with it: 264 h, 500 ppm of active ingredient, bean, preventive spray, evaluated 11 days after inoculation, read-out: efficacy.
Series [6] has as its system Pyricularia oryzae. Put plainly: whole plant or invertebrate. It is filed as in vivo. The note with it: 192 h, read-out: efficacy.
In series [7] the test system is Alternaria solani. In words: In vivo preventive Alternaria test (tomatoes), Example H. The following applies: 72 h, 100 ppm of active ingredient, preventive spray, evaluated 3 days after inoculation, read-out: efficacy.
Series [8] is described as follows: Measurement of LogP values by HPLC on reversed phase columns (EEC directive 79/831 Annex V.A8). The note with it: method [a]: LC-UV, acidic range, 0.1% formic acid in water and acetonitrile as eluent; Table 1. It is filed as physicochemical. The protocol:
Measurement of Log P values was performed as outlined above.

Series [9] concerns Botrytis cinerea. In words: In vivo preventive test on Botrytis cinerea (grey mould) on gherkin, Examples B, Q1 and R2. The note with it: Botrytis cinerea, 500 ppm of active ingredient, preventive spray, evaluated 4 to 5 days after inoculation, read-out: efficacy.
The test system of series [10] is Alternaria brassicae. In words: In vivo preventive test on Alternaria brassicae (leaf spot on radish), Examples A and R1. The note with it: Alternaria brassicae, 144 h, 500 ppm of active ingredient, preventive spray, evaluated 6 days after inoculation, read-out: efficacy.
Series [11] deals with Puccinia recondita. In words: In vivo preventive test on Puccinia recondita (brown rust on wheat), Examples C and R3. The following applies: Puccinia recondita, 264 h; 500 ppm of active ingredient; wheat, preventive spray, evaluated 11 days after inoculation; read-out: efficacy.
Series [12] relates to Phakopsora pachyrhizi. Put plainly: In vivo preventive Phakopsora test (soybeans), Example I. The note with it: 168 h, 100 ppm of active ingredient, preventive spray, evaluated 7 days after inoculation, read-out: efficacy.
Series [13] relates to Sphaerotheca fuliginea. Put plainly: In vivo preventive test on Sphaerotheca fuliginea (powdery mildew on cucurbits), Examples F and R6. The note with it: Podosphaera fuliginea, 360 h; 500 ppm of active ingredient; gherkin, preventive spray, evaluated 15 days after inoculation; read-out: efficacy.
The test system of series [14] is Fusarium graminearum. Put plainly: whole plant or invertebrate. It is filed as in vivo. The note with it: in Hordeum vulgare, 120 h, read-out: efficacy.

In the case of `OC(Cc1cc(Cl)ncc1Cl)(Cn1cncc1Cl)C1(Cl)CC1` (stereo not shown) [Example I-17], the pest or weed control at 500 ppm was 70 to 79% in series [1]; 90 to 100% in [2]; 90 to 100% in [4]; 90 to 100% in [5]; 90 to 100% in series [6]; 80 to 89% in series [9]. The pest or weed control at 500 ppm lay within 90 to 100% in series [10], 80 to 89% in series [11] and 90 to 100% in series [13]. Moreover, the pest or weed control at 100 ppm in series [3], in [7] and in series [12] was 90 to 100% each time. In addition, the chromatographic logP in series [8] turned out to be 2.18.

Turning to `CSc1cncn1CC(O)(Cc1ccccc1Cl)C1(Cl)CC1` (stereo not shown) [Example I-22], the pest or weed control at 500 ppm in [1] was 90 to 100%; in series [2], 80 to 89%; in [4], 90 to 100%; in series [5], 90 to 100%; in series [6] it was 80 to 89%; in [10], 80 to 89%. For the same compound, the pest or weed control at 500 ppm in [11] and in series [13] was 90 to 100% in each case. For the same compound, the chromatographic logP in [8] is 2.08.

For the compound `OC(Cc1cccnc1Cl)(Cn1cncc1Br)C1(Cl)CC1` (stereo not shown) [Example I-25], the pest or weed control at 500 ppm in series [1] was in the range of 70 to 79%; in series [2], 80 to 89%; in [4] it was 90 to 100%; in series [5], 90 to 100%; in [6], 70 to 79%; in series [9] it was 90 to 100%. In addition, the pest or weed control at 500 ppm was in the range of 80 to 89% in series [11] and 90 to 100% in series [13]. The chromatographic logP in series [8] amounted to 1.56.

As for `N#Cc1cncn1CC(O)(Cc1ccccc1Br)C1(Cl)CC1` (stereo not shown) [Example I-40], the pest or weed control at 500 ppm in series [1] was in the range of 90 to 100%; in series [2] it was 70 to 79%; in series [4], 90 to 100%; in series [5], 90 to 100%; in [6], 70 to 79%; in [9] it was 90 to 100%. In addition, the figures for the pest or weed control at 500 ppm in series [10], in [11] and in series [13] were 80 to 89%, 80 to 89% and 90 to 100%, respectively. The pest or weed control at 100 ppm in [3] lay in the range of 80 to 89%; in series [7], 90 to 100%; in series [12], 90 to 100%.

Turning to `N#Cc1cncn1CC(O)(Cc1ccc(Cl)cc1)C1(Cl)CC1` (stereo not shown) [Example I-64], the pest or weed control at 500 ppm in [1] was 90 to 100%; in [4], 90 to 100%; in [5] it was 90 to 100%; in series [11], 90 to 100%; in series [14] it was 80 to 89%; in [13], 90 to 100%. In series [8], this compound showed a chromatographic logP of 3.1.

In the case of `OC(Cc1ccc(Cl)cc1Cl)(Cn1cncc1Cl)C1(Cl)CC1` (stereo not shown) [Example I-69], the pest or weed control at 500 ppm was 80 to 89% in series [2]; 80 to 89% in series [4]; 90 to 100% in series [5]; 80 to 89% in series [9]; 70 to 79% in [10]; 80 to 89% in [11]. For the same compound, the pest or weed control at 500 ppm in series [13] lay within 90 to 100%. Besides, the pest or weed control at 100 ppm in series [3], in series [7] and in series [12] was 90 to 100% each time.

For `N#Cc1cncn1CC(O)(Cc1ccccc1Cl)CC1CC1` (stereo not shown) [Example I-84], the pest or weed control at 500 ppm in [1] lay within 90 to 100%; in series [2], 80 to 89%; in series [4], 90 to 100%; in series [5], 90 to 100%; in series [6], 70 to 79%; in [11], 90 to 100%. In series [13], the pest or weed control at 500 ppm fell in the range of 90 to 100%. The compound further gave a chromatographic logP in series [8] of 2.84.

Regarding `N#Cc1cncn1CC(O)(Cc1ccncc1C(F)(F)F)C1(Cl)CC1` (stereo not shown) [Example I-92], the pest or weed control at 500 ppm in series [1] lay within 90 to 100%; in [4], 90 to 100%; in series [5] it was 90 to 100%; in [6], 80 to 89%; in series [11], 80 to 89%; in [13] it was 90 to 100%. Besides, in [8], the chromatographic logP amounted to 2.18.

For the compound `N#Cc1cncn1CC(O)(Cc1ccc(F)c(Cl)c1F)C1(Cl)CC1` (stereo not shown) [Example I-101], the pest or weed control at 500 ppm in series [1], in series [2], in series [4], in [5], in [11] and in series [13] was 90 to 100% in each case. For the same compound, the pest or weed control at 100 ppm in series [3] was 80 to 89%; in series [7], 90 to 100%; in series [12], 90 to 100%. In series [8], this compound registered a chromatographic logP of 3.17.

As to `Cc1ccc(CC(O)(Cn2cncc2C#N)C2(Cl)CC2)c(F)c1` (stereo not shown) [Example I-107], the pest or weed control at 500 ppm was 90 to 100% in series [2]; 90 to 100% in [4]; 80 to 89% in series [5]; 90 to 100% in series [9]; 80 to 89% in series [11]; 90 to 100% in [13]. Moreover, the pest or weed control at 100 ppm in [3] lay in the range of 80 to 89%; in [7], 90 to 100%; in series [12], 80 to 89%. In series [8], this compound came in with a chromatographic logP of 2.97.

Regarding `CC1(C(O)(Cc2cccc(F)c2F)Cn2cncc2C#N)CC1` (stereo not shown) [Example I-144], the pest or weed control at 500 ppm lay in the range of 90 to 100% in series [1]; 90 to 100% in [2]; 90 to 100% in series [4]; 90 to 100% in series [5]; 70 to 79% in series [6]; 90 to 100% in series [9]. Besides, the pest or weed control at 500 ppm in [11], in [14] and in series [13] was 90 to 100% in each case. The chromatographic logP in [8] is 2.75.

`Cc1cc(F)ccc1CC(O)(Cn1cncc1C#N)C1(Cl)CC1` (stereo not shown) [Example I-153]: the pest or weed control at 500 ppm in [2] is 80 to 89%; in series [4], 90 to 100%; in series [5], 90 to 100%; in series [11], 90 to 100%; in [13] it was 90 to 100%. The pest or weed control at 100 ppm in [3] lay within 80 to 89%; in series [7], 90 to 100%; in series [12] it was 90 to 100%.

For the compound `Cc1cc(F)ccc1CC(O)(Cn1cncc1Cl)C1(Cl)CC1` (stereo not shown) [Example I-155], the pest or weed control at 500 ppm is 70 to 79% in [2]; 90 to 100% in series [4]; 90 to 100% in series [5]; 90 to 100% in series [9]; 70 to 79% in [10]; 80 to 89% in series [11]. Also, in [13], the pest or weed control at 500 ppm was 90 to 100%. Also, the pest or weed control at 100 ppm in series [3], in [7] and in series [12] was 90 to 100% in each case. In [8], this compound displayed a chromatographic logP of 2.46.

Regarding `N#Cc1cncn1CC(O)(Cc1cc(F)cc(F)c1)C1(Cl)CC1` (stereo not shown) [Example I-156], the pest or weed control at 500 ppm in series [1] lay in the range of 90 to 100%; in [2], 80 to 89%; in series [4], 90 to 100%; in series [5], 90 to 100%; in [11], 90 to 100%; in series [14], 80 to 89%. Further, the pest or weed control at 500 ppm in [13] was 90 to 100%. Besides, in series [8], the chromatographic logP turned out to be 2.86.

With `N#Cc1cncn1CC(O)(Cc1cc(F)ncc1Cl)C1(Cl)CC1` (stereo not shown) [Example I-165], the pest or weed control at 500 ppm in [1], in series [4], in series [5], in series [6], in series [11] and in [13] was 90 to 100% in each case. This compound had a chromatographic logP in series [8] of 2.38.
